According to USRE37781E1, “Substituted cyclic carbonyls and derivatives thereof useful as retroviral protease inhibitors” (DuPont Pharmaceuticals Company, priority 1991, dated 2002):
≈ marks a conversion by molar mass, not a printed value. Like-named read-outs stand apart in the source and are kept apart here.

Columns and labels:
[1] = Hydrolysis of prodrugs to 5U in biological fluids in vitro; type: in vitro ADME; conditions: exposed to plasma or intestinal enzymes in vitro, 37° C.
Protocol: Compounds 29A-29E are hydrolyzed to parent compound 5U in biological fluids in vitro. This was shown as follows. Plasma was collected from rats, dogs, or human volunteer, and was used within 24 hours. […] After various times of incubation at 37° C., the hydrolysis reaction was quenched with the addition of an organic solvent. The organic solvent was used for extraction of 5U, and concentrations of 5U in the plasma aliquots were determined using HPLC after extraction. Concentrations of 5U were thus measured vs. time of incubation of the prodrug in plasma at 37° C. Similar studies were performed using a homogenate of rat intestinal tissue (10% w/v) as the hydrolysis medium. Results for in vitro hydrolysis of prodrug 29B in dog plasma and rat intestinal homogenate (10% w/v) are given in Table B. Results for in vitro hydrolysis of prodrug 29C in rat, dog and human plasma are given in Table C. […] Other salt forms of these compounds, such as prodrugs 29A and 29D, will be similar to their free acid or free base forms.

[2] = Oral bioavailability studies in fasted beagle dogs; type: in vivo; conditions: for bioavailability: beagle, dog, plasma, po, excipient glycol, read-out: % Oral Bioavailability of 5U (Mean ± SE)
Protocol: Improved water solubility can result in increasing the extent of oral bioavailability. Oral bioavailability studies were performed in fasted beagle dogs. Compounds were dosed orally using a solution vehicle or the solid drug powder filled into hard gelatin capsules. Periodic blood samples were taken from each dog and plasma was separated. Plasma drug concentrations were determined using extraction and HPLC analysis. Generally, after the administration of 5U or its prodrugs 29A-E, the plasma concentrations of 5U were determined, rather than unchanged prodrug concentrations. […] Oral bioavailability is expressed as the percentage of the oral dose absorbed. […] Therefore, in order to attain improved oral bioavailability, 5U was administered using a solution with polyethylene glycol 400 or propylene glycol as the vehicle. […] Improved oral bioavailability was attained when the water soluble prodrugs were administered in the solid form, with no added excipients or solvents. […] The advantage of the water soluble prodrugs is especially clear at high doses. […] Samples were then extracted again and assayed for 5U concentration. […] Thus, plasma levels of both intact prodrug and hydrolysis product can be attained using these water soluble prodrugs.

HIV protease = molecular target: T1, HIV protease (Human immunodeficiency virus type 1 group M subtype B, UniProt P04585); experiment: biochemical; parameters: species or system HIV-1
T1 construct: plasmid containing HIV protease under the control of an inducible T7 promoter; made in house; host or cells: E. coli (inclusion bodies, T7 promoter)
Protocol: HIV Protease Inhibition Assay—Spectroscopic Method
Inclusion bodies were solubilized in 8M urea, 50 mM tris pH 8.0. Protease activity was recovered by dilution 20-fold into buffer containing 50 mM sodium acetate pH 5.5, 1 mM EDTA, 10% glycerol and 5% ethylene glycol. Enzyme was used at a final concentration of 1.0-10 ug/ml.
Stock solutions of 10 mM were prepared in DMSO.
All further dilutions were done in DMSO.

[3] = system: HIV(3B) or HIV(RF) in MT-2 cells; type: cell-based; parameters: scale not given here; conditions: Table E, whole cell infectivity assay
Protocol: HIV Low Multiplicity Assay
Materials: MT-2, a human T-cell line, was cultured in RPMI medium supplemented with 5% (v/v) heat inactivated fetal calf serum (FCS), L-glutamine and gentamycin (GIBCO). Human immunodeficiency virus strains HIV (3B) and HIV (RF) were propagated in H-9 cells in RPMI with 5% FCS. XTT, benzene-sulfonic acid, 3,3′-[1-[(phenylamino) carbonyl]-3,4-tetrazolium]bis (4-methoxy-6nitro)-, sodium salt, was obtained from Starks Associates, Inc.
Method: Test compounds were dissolved in dimethylsulfoxide to 5 mg/ml and serially diluted into RPMI medium to ten times the desired final concentration. MT-2 cells (5×10^4/0.1 mL) were added to each well of a 96 well culture plate and 0.02 mL of the appropriate test compound solution was added to the cells such that each compound concentration was present in two wells. The cells and compounds were allowed to sit for 30 minutes at room temperature. HIV(3B) or HIV(RF) (−5×10^5 plaque foaming units/mL) was diluted in medium and added to the cell and compound mixtures to give a multiplicity of infection of 0.01 plaque forming unit/cell. The mixtures were incubated for 7 days at 36° C., during which time the virus replicated and caused the death of unprotected cells. The percentage of cells protected from virus induced cell death was determined by the degree of metabolism of the tetrazolium dye, XTT. In living cells, XTT was metabolized to a colored formazan product which was quantitated spectrophotometrically at 450 nm. The amount of colored formazan was proportional to the number of cells protected from virus by the test compound. The concentration of compound protecting either 50% (IC50) or 90% (IC90) with respect to an uninfected cell culture was determined.

HIV-1 protease = experiment: HIV-1 Protease Transgenic Mouse Model (cataract phenotype); conditions: for Cataract Density (% of control): Tg 61 mouse; for Delay in Cataract (relative to control): Tg 72 mouse
Method: The HIV protease inhibitory activity of the presently claimed compounds was measured in this animal system as a delay or prevention of the onset of cataract appearance in the test animals.
Plasmid Construction: The mammalian expression vector pMSG (Pharmacia) was modified by replacing the MMTV LTR promoter with the 412-bp Bgl II-BamHI mouse alpha A-cryatallin promoter fragment (Chepelinsky et al. Proc. Natl. Acad. Sci. USA, 1985, 82, 2334-2338). The SV40 early splice and polyadenylation signals were retained and this plasmid was renamed pCSV 19. A single chain, tethered dimeric form of the active HIV-1 protease gene (BAA; Cheng et al., Proc. Natl. Acad. Sci. USA, 1990, 87, 9660-9664 and Cheng et al., Gene, 1990, 87, 243-248) was modified for mammalian cell expression by replacing nucleotides 7 to 90 with [sequence]. The gene was cut with EcoRI and Hind III and after blunt-end repair cloned into the Sma I site of the pCSV 19, thus producing PCSV 19-BAA.
Construction of Transgenic Mice: 2.5 kb Hind III fragments from the pCSV 19-BAA and pCSV 19-BA*A* plasmids were isolated (modified from Sambrook at al., Molecular Cloning, A Laboratory Manual, 2nd Ed., 1989, Cold Spring Harbor Laboratory) and used for the construction of transgenic mice using the pronuclei injection method (Hogan et al., Manipulating the Mouse Embryo. A Laboratory Manual, 1986, Cold Spring Harbor Laboratory). Mice were screened for the HIV-1 protease transgene by either Southern blot or Polymerase Chain Reaction (PCR) methods. Mice of the FVB/N strain (Taketo et al., Proc. Natl. Acad Sci. USA, 1991, 88, 2065-2069) were used for the construction and breeding of these transgenic mice, and were originally obtained from Dr. Carl Hansen (NIH) and bred in our facility. Subsequently, the mice were purchased from Charles River Laboratory (Portage, Mich.).
Identification of Transgenic Mice: Southern blot analysis (Sambrook et al. vide supra) was performed on DNA purified from tail biopsies (Hogan et al. vide supra) using the 2.5 kb Hind III fragment from pCSV 19-BAA as the probe (^32P labeled). DNA for PCR was prepared from tail biopsies by overnight digestion with 0.5 mg of Proteinase K (Boehringer-Manheim GmbH) in 100 μl of water and 0.025% SDS. PCR primers specific for the mouse c-fos gene and the transgene's SV40 segment were used as an internal control in some samples. Each PCR reaction contained 1-2 μl of tail digest, 60 μg of each primer, 200 μM of Perkin Elmer Cetus dATP, dCTP, dGTP,TTP (buffered at pH 8.8) and up to 5 units of Perkin Elmer Cetus Ampli/Taq polymerase. The reactions were run on a Perkin Elmer DNA Thermal Cycler as follows: 1 min at 94° C., 3 min at 67° C. (2 sec extension/cycle) for 35 cycles. The PCR products were analyzed by gel electrophoresis (1% agarose,0.5 μg/ml of ethidium bromide), and tail samples with a 625 PCR fragment (SV40 specific) were considered positive for the transgene. Mice bearing the active HIV-1 protease transgene were also identified by their cataract phenotype.
Dosing Regimen: Compounds to be tested were pulverized by manual grinding with mortar and pestle. Just prior to dosing of mice, the compound was suspended in 0.25% methylcellulose/Tween 80 solution, homogenized in a manual Dounce homogenizer and sonicated for 10 min in a sonicating water bath. The volume of suspension was adjusted so that the amount of compound required for dosing one mouse was 0.1-0.2 mL. In order to maintain the required mg/kg dose, an average mouse weight for each group was determined twice a week and the amount of compound adjusted accordingly. Intraperitoneal (ip) and oral (po) dosing was performed using 25 G ⅝ in. injection and 20 G 1½ in. feeding needles, respectively. The dosing was performed twice a day (bid) and the doses were administered 6-8 h apart.

Solubility studies = type: physicochemical
Protocol: For compounds of the present invention having reduceded water solubility it may be advantageous to prepare prodrugs to enhance the solubility and bioavailability of these compounds. […] Solubility studies were performed by mixing an excess of solid compound in water or aqueous medium for at least 4 hours. Solubility was assessed either visually, if a weighed amount clearly dissolved in a measured volume of solvent (method A), or by HPLC assay of filtrates of saturated solutions (method B).

[4] = molecular target: single-chain tethered dimer of HIV protease (Human immunodeficiency virus 1, UniProt P04585); experiment: biochemical; type: biochemical
HIV-1 (RF) in MT-2 cells = experiment: microbe, parasite or virus in culture; type: cell-based; conditions: Human immunodeficiency virus 1, MT2, HIV RNA assay, HIV-1 infected MT-2 cells; class symbols; read-out: IC90
Procedure, shortened: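 HIV-1 laboratory strains (RF, MN, IIIB) grown in H9 cells in RPMI 1640 with 5% FCS; infections in MT-2 cells. Viral RNA quantified by hybridization with biotinylated gag/pol capture probes on streptavidin plates and alkaline phosphatase-conjugated reporter probes; BH10 gag-pol in vitro transcripts serve as RNA standards.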

In the case of `CN(C)CC(=O)OCc1ccc(CN2C(=O)N(Cc3ccc(COC(=O)CN(C)C)cc3)[C@H](Cc3ccccc3)[C@H](O)[C@@H](O)[C@H]2Cc2ccccc2)cc1.Cl` [Example 29E], the “conversion of prodrug to parent 5U” value [1] is reported as “readily convert to parent 5U” and the “AUC of intact esters (total of mono and bis ester) relative to that of 5U” value ([2]; oral, plasma treated with NaOH) is reported as “approximately 2 fold”.
For `O=C1N(CC2CC2)[C@H](Cc2ccccc2)[C@H](O)[C@@H](O)[C@@H](Cc2ccccc2)N1CC1CC1` [Example 1X], the Ki (HIV protease; Table 1a, read-out: Ki) was less than 10 nM, the IC90 [3] was “+ + +” and the “Cataract Density (% of control)” value (HIV-1 protease; 5 mg/kg ip preg days 11-18) was 39.8 % of control. For the same molecule, the “Cataract Density (% of control)” value (HIV-1 protease; 15 mg/kg ip preg days 11-18) was 28.8 % of control.
Work on `O=C1N(Cc2ccc(COP(=O)(O)O)cc2)[C@H](Cc2ccccc2)[C@H](O)[C@@H](O)[C@@H](Cc2ccccc2)N1Cc1ccc(COP(=O)(O)O)cc1` [Example 29A] yielded a Solubility (Solubility studies) of 2250 µg/mL (≈ 3100 µM).
With `CC(C)=CCN1C(=O)N(CC=C(C)C)C(Cc2ccccc2)C(O)C(O)C1Cc1ccccc1` (centres unmarked) [Example 1AC] the Ki (HIV protease; Table 1a, read-out: Ki) was less than 10 nM, the IC90 [3] was “+ + +” and the melting point was 160 to 163 °C.
Molecule `O=C1N(Cc2ccc(CO)cc2)C(Cc2ccccc2)C(O)C(O)C(Cc2ccccc2)N1Cc1ccc(CO)cc1` (centres unmarked) [Example 5U] has a Ki [4] of less than 10 nM, an IC90 (HIV-1 (RF) in MT-2 cells) of less than 10 µg/mL and a Solubility (Solubility studies; thermodynamic from solid, water, method B (HPLC assay of filtrates of saturated solutions), read-out: Solubility) of 10 µg/mL (≈ 17.6 µM). For the same molecule, the oral bioavailability ([2]; administered as the solid powder) was “low oral bioavailability”, the bioavailability ([2]; dose 40 mg/kg 5U eq.) was 5 ± 2% and the bioavailability ([2]; dose 10-15 mg/kg 5U eq.) was 50 ± 20%. For the same molecule, the oral bioavailability ([2]; similar (high) dose in a non-aqueous vehicle) was “relatively poor oral bioavailability”, the “Delay in Cataract (relative to control)” value (HIV-1 protease; 100 mg/kg bid ip) was 5 days and the “Delay in Cataract (relative to control)” value (HIV-1 protease; 400 mg/kg bid ip days 15-42) was 45 days.
For `O=C1N(Cc2ccccc2)C(Cc2ccccc2)C(O)C(O)C(Cc2ccccc2)N1Cc1ccccc1` (centres unmarked) [Example 1AQ], the Ki (HIV protease; Ki) was less than 10 nM, the IC90 [3] was “+ + +” and the “Cataract Density (% of control)” value (HIV-1 protease; 60 mg/kg ip preg days 11-18) was 46.6 % of control. For the same molecule, the “Cataract Density (% of control)” value (HIV-1 protease; 85 mg/kg ip preg days 11-18, 17-18) was 20.6 % of control.
Work on `CN(C)CC(=O)OCc1ccc(CN2C(=O)N(Cc3ccc(CO)cc3)[C@H](Cc3ccccc3)[C@H](O)[C@@H](O)[C@H]2Cc2ccccc2)cc1.Cl` [Example 29D] yielded a Solubility (Solubility studies; water, method A (visually)) greater than 200000 µg/mL.
For `CC(C)CCN1C(=O)N(CCC(C)C)C(Cc2ccccc2)C(O)C(O)C1Cc1ccccc1` (centres unmarked) [Example 1AH], the Ki (HIV protease; Table 1a, read-out: Ki) was less than 10 nM, the IC90 [3] was “+ + +” and the melting point was 194 to 195 °C.
For `CCCN1C(=O)N(CCC)C(Cc2ccccc2)C(O)C(O)C1Cc1ccccc1` (centres unmarked) [Example 1AF], the IC90 [3] was “+ + +” and the melting point was 180 to 182 °C.
In the case of `CN(C)CC(=O)OCc1ccc(CN2C(=O)N(Cc3ccc(COC(=O)CN(C)C)cc3)[C@H](Cc3ccccc3)[C@H](O)[C@@H](O)[C@H]2Cc2ccccc2)cc1` [Example 29C], the Solubility (Solubility studies; 0.1M citric acid, method A (visually)) is reported as greater than 20000 µg/mL and the “conversion of prodrug to parent 5U” value [1] is reported as “readily convert to parent 5U”.
In the case of `C=CCN1C(=O)N(CC=C)C(Cc2ccccc2)C(O)C(O)C1Cc1ccccc1` (centres unmarked) [Example 1C], the Ki (HIV protease; Ki, Table 1a) is reported as less than 10 nM and the IC90 [3] is reported as “+ + +”.
For `CCCCN1C(=O)N(CCCC)C(Cc2ccccc2)C(O)C(O)C1Cc1ccccc1` (centres unmarked) [Example 1Z], the Ki (HIV protease; Table 1a, read-out: Ki) was less than 10 nM and the IC90 [3] was “+ + +”.
For `O=C1N(Cc2cc(Cl)cc(Cl)c2)C(Cc2ccccc2)C(O)C(O)C(Cc2ccccc2)N1Cc1cc(Cl)cc(Cl)c1` (centres unmarked) [Example 6ZJ], the Ki [4] was 10 to 1000 nM, the IC90 (HIV-1 (RF) in MT-2 cells) was 10 to 100 µg/mL (≈ 15.5 to 155 µM) and the melting point was 231.1 °C.
In the case of `O=C1NC(Cc2ccccc2)C(O)C(O)C(Cc2ccccc2)N1Cc1ccc2ccccc2c1` (centres unmarked) [Example 4V], the Ki [4] is reported as less than 10 nM, the IC90 (HIV-1 (RF) in MT-2 cells) is reported as less than 10 µg/mL and the melting point is reported as 210 to 213 °C.
